# Calls of active or inactive are those of the source. The rule behind the calls is not given here.
# Columns and labels:
# Cavia porcellus [1] = species on record: Cavia porcellus; experiment: Competitive antagonist activity at guinea pig trachea beta-adrenoceptor assessed as inhibition of isoprenaline-induced effect up to 10^-4 M; type: tissue-based
# Cavia porcellus [2] = species on record: Cavia porcellus; experiment: Competitive antagonist activity at guinea pig atrium beta-adrenoceptor assessed as inhibition of isoprenaline-induced effect up to 3 X 10^-5 M; type: tissue-based; conditions: Cardiac atrium
# [3] = Antagonist activity at guinea pig trachea beta-adrenoceptor assessed as inhibition of isoprenaline-induced effect; type: tissue-based, Cavia porcellus
# [4] = Antagonist activity at guinea pig atrium beta-adrenoceptor assessed as inhibition of isoprenaline-induced effect; type: tissue-based, Cavia porcellus, Cardiac atrium
Compound,Activity (Cavia porcellus [1]),Activity (Cavia porcellus [2]),pA2 [3],pA2 [4]
Cc1cccc(OCC(Cl)CNC(C)C)c1 (configuration not stated),inactive,inactive,,
Cc1cccc(OCC(CO)NC(C)C)c1.Cl (configuration not stated),,,5.21,5.08
Cc1cccc(OCC(O)CNC(C)C)c1.Cl (configuration not stated),,,7.97,8.76
COCC(COc1cccc(C)c1)NC(C)C.Cl (configuration not stated),inactive,,,4.66
Cc1cccc(OCC(CCl)NC(C)C)c1.Cl (configuration not stated),inactive,,,4.86
COC(CNC(C)C)COc1cccc(C)c1.Cl (configuration not stated),inactive,,,5.41
